From patent US7521540B2, “CYR61 compositions and methods” (Munin Corporation, priority 1996, dated 2009)

Experiments:
[1] = test system: HUVE cells; experiment: Fisp12 cell attachment assay, HUVE cells; assay type: cell-based, human; details: EDTA added to culture medium; cell type not stated
Protocol: The capacity of Fisp12 to affect cell adhesion was also investigated. Fisp12 cell attachment assays were performed essentially as described (Oliver et al., [1989]). 96-well immunological plates were coated for 16 hours at 4° C. with 20 μg/ml Cyr61, Fisp12 or fibronectim (Gibco BRL) in PBS containing 0.1 mg/ml BSA and blocked with 10 mg/ml BSA for 1 hour at room temperature. HUVE cells were plated at 10^4 cells/well in F12K media with 10% FBS (Hyclone Laboratories, Inc., Logan, Utah); NIH 3T3 fibroblasts were plated at 3×10^4 cells/well and Mv1Lu cells were plated at 5×10^4 cells/well in minimal essential medium (MEM) with 10% FBS. After 1 hour incubation cells were fixed, stained with methylene blue and quantified as described (Oliver et al., [1989]). Cell spreading was examined on cells plated on 100 mm polystyrene petri dishes coated with 2.5 ml of a 20 μg/ml solution of Cyr61, Fisp12 or fibronectin. 10^7 cells were plated on each dish and cell spreading was analyzed 90 minutes after plating by microscopy at 100× magnification.

[2] = test system: 1064SK primary human foreskin fibroblasts; experiment: Fibroblast adhesion assay (methylene blue, A620); assay type: cell-based
Protocol: The ability of Cyr61 to mediate cell adhesion in normal fibroblasts was investigated. Microtiter wells were coated with purified recombinant Cyr61 protein, and 1064SK primary human foreskin fibroblasts were allowed to adhere under serum-free conditions. […] 50 μl cell suspensions were plated on microtiter wells coated with varying concentrations (0.5-5.0 μg/ml) of Cyr61 protein. After incubation at 37° C. for 30 minutes, adherent cells were fixed and stained with methylene blue.
In another experiment, microtiter wells were coated with either BSA, Cyr61 (2 μg/ml), or vitronectin (VN; 0.5 μg/ml) and blocked with affinity-purified anti-Cyr61 antibodies for one hour at 37° C. before 1064SK cells were plated.
The effects of divalent cations in cell adhesion to Cyr61 was also investigated. […] Data are means from triplicate determinations. […] Inhibition by Ca^2+ is characteristic of adhesion through some members of the β1 family of integrins, including receptors that bind type I collagen, laminin, and vitronectin (integrins α2β1, α6β1, and αVβ1) in fibroblasts, as well as the lymphocyte-specific integrin αLβ2.
The effects of RGD peptides on Cyr61-mediated fibroblast binding was tested by plating cells in wells coated with Cyr61 (2 μg/ml). Type I collagen (2 μg/ml) or vitronectin (0.5 μg/ml), 2 mM GRGDSP or GRGESP peptide was then added.
Cells were also pre-incubated with 40 μg/ml monoclonal antibodies against the integrin α5 or the integrin αV subunits at room temperature for 30 minutes, then plated on wells coated with Cyr61 (2 μg/ml), vitronectin (0.5 μg/ml) or fibronectin (FN, 1 μg/ml). […] The data are means, representative of three experiments.
The 1064 SK cells were also analyzed using the monoclonal antibody JBIA, which binds the β1 integrin subunit. Cells were pre-incubated with the antibody (50 μg/ml) before plating on microtiter wells coated with Cyr61 (2 μg/ml), Type I collagen (2 μg/ml), or vitronectin (0.5 μg/ml). […] Data are means, representative of three experiments.
To identify the specific β1 integrin that mediates fibroblast adhesion to Cyr61, the inhibitory effects of function-blocking monoclonal antibodies were tested against various integrin α subunits. […] The data are means, representative of at least three experiments.

[3] = test system: platelets; experiment: Platelet adhesion assay; assay type: cell-based, human
Protocol: Microtiter wells were coated with purified recombinant Fisp12/mCTGF or Cyr61, and the adhesion of isolated platelets to these proteins was detected with ^125I-mAb15, an anti-β3 monoclonal antibody (Frelinger et al., J. Biol. Chem 265:6346-6352 [1990]). Platelets were obtained from venous blood drawn from healthy donors and collected into acid-citrate-dextrose (ACD). Washed platelets were prepared by diffenential centrifugation as described (Kinlough-Rathbone et al. Thromb. Haemostas 2:291-308 [1997]), and finally resuspended in HEPES-Tyrode's buffer (5 mM HEPES, pH 7.35, 1 mM MgCl2, 1 mM CaCl2, 135 mM NaCl, 2.7 mM KCl, 11.9 mM NaHCO3, 1 mg/ml dextrose and 3.5 mg/ml BSA). The platelet concentration was adjusted to […].
Microtiter wells (Immulon 2 removawell strips, Dynex Technologies, Inc.) were coated with Cyr61, Fisp12/mCTGF, or fibrinogen (25 μg/ml, 50 μl/well) incubated overnight at 22° C., and then blocked with 3% BSA at 37° C. for 2 hours. Washed platelets were added to the wells (100 μl/well) in the presence and absence of platelet agonists and incubated at 37° C. for 30 minutes. The wells were washed with HEPES-Tyrode's buffer and adherent platelets were detected with ^125I-mAb15, an anti-β3 monoclonal antibody. Exposure to the labeled antibody ([…], 50 μl/well) proceeded for 1 hour at 22° C. After extensive washing with HEPES-Tyrode's buffer, bound radioactivity was determined by γ-counting. In inhibition studies, washed platelets were pre-incubated with blocking peptides or antibodies at 37° C. for 15 minutes prior to addition to microtiter wells.
The anti-β3 antibody was radioiodinated with carrier-free Na^125I (Amersham Corp.) using the IODO-BEADS iodination reagent (Pierce) to a specific activity of approximately 2 μCi/μg. […] As controls, BSA- and fibrinogen-coated (KabiVitrum Inc.) wells were also used. Initially, the adhesion of unactivated versus activated platelets to immobilized Fisp12/mCTGF and Cyr61 was compared. To ensure that plateltes were not activated during the washing procedures, PGl2 (100 nM), which inhibits activation by raising platelet cAMP levels, was added to the platelet suspensions. […]

[4] = target: T1, αVβ3 integrin (Homo sapiens, UniProt P05106+P06756); experiment: Integrin binding assay (ligand-receptor ELISA)
T1 construct: αVβ3 integrin purification from HUVE cell lysates was done as described in Pytela et al; endogenous in cells; host or cells: HUVE cells
Protocol: αVβ3 integrin purification from HUVE cell lysates was done as described in Pytela et al., Meth. Enzynmol., 144:475-489 (1987). Briefly, 10^8 cells were lysed in 1 ml of PBS containing 1 mM CaCl2, 1 mM MgCl2, 0.5 mM PMSF and 100 mM octylglucoside. The lysate was passed four times through a 0.5 ml column containing RGDSPK Sepharose (prepared from the cyanogen bromide activated Sepharose CL 4B as described in Lam, S. C-T., J. Biol. Chem., 267:5649-5655 (1992). The column was washed with 10 ml of the lysis buffer and the bound protein was eluted with 2 ml of the same buffer containing 1 mM RGDS peptide at room temperature. The αVβ3 integrin was dialyzed against PBS containing 1 mM CaCl2, 1 mM MgCl2, 5 mM octylglucoside and 0.1 mM PMSF with three changes of the dialysis buffer to remove the RGDS peptide. The protein was stored in aliquots at −70° C. The purity of the integrin was determined by SDS-PAGE under non-reducing conditions, followed by silver staining.
The integrin binding assay was developed in accordance with the disclosures in Brooks et al., Cell 85:683-693 (1996), and Lam, S. C-T (1992). Approximately 50 ng of the integrin in a total volume of 50 μl were added per well of 96-well immunological Pro-Bind plates (Falcon) and incubated overnight at 4° C. Non-specific sites were blocked with 20 mg/ml BSA in the same buffer and washed four times in that buffer. Treated plates were incubated with 1 μg/ml Cyr61 or 0.1 μg/ml vitronectin for 3 hours at room temperature. […] The final dilution of the LM609 ascites fluid was 1:200. Bound proteins were detected by specific polyclonal antisera (anti-Cyr61 antiserum was diluted 1:500 and anti-vitronectin antiserum was diluted 1:1000 in PBS containing 1 mM CaCl2, 1 mM MgCl2, and 5 mg/ml BSA) followed by a secondary antibody-horseradish peroxidase conjugate (1:20000 in the same buffer). […] Horseradish peroxidase (HRP) was detected with an HRP immunoassay kit (Bio-Rad Laboratories). The colorimetric reaction was developed for 15-30 minutes at room temperature, stopped by the addition of H2SO4, and the absorbance at 450 nm was measured. […]

[5] = target: T2, αllbβ3 (Homo sapiens, UniProt P05106+P08514); experiment: Solid-phase binding assay with purified integrin
T2 construct: from tissue; host or cells: outdated human platelets
Protocol: In these experiments, activated and unactivated αllbβ3 were purified from platelet lysates. Activated αllbβ3 was purified by RGD affinity chromatography, as described (Knezevic et al., J. Biol. Chem. 271:16416-16421 [1996]). Briefly, outdated human platelets were isolated by differential centrifugation and solubilized in lysis buffer (10 mM HEPES, pH 7.4, 0.15 M NaCl, containing 1 mM CaCl2, 1 mM MgCl2 100 μM leupeptin, 1 mM phenylmethylsulfonyl fluoride, 10 mM-ethylmaleimide, and 50 mM octylglucoside). The octylglucoside extract was incubated with 1 ml GRGDSPK-coupled Sepharose 4B overnight at 4° C. After washing with 15 ml column buffer (same as lysis buffer except it contained 25 mM octylglucoside), bound αllbβ3 was eluted with 1.7 mM H12 (2 ml) in column buffer. The H12 eluate was applied to a Sephacryl S-300 High Resolution column (1.5×95 cm), and αllbβ3 was eluted with 10 mM HEPES, pH 7.4, 0.15 M NaCl, 1 mM CaCl2, 1 mM MgCl2 and 25 mM octylglucoside.
Unactivated αllbβ3 was isolated by the method of Fitzgerald et al., Anal. Biochem. 151:169-177 (1985), with slight modifications. The flow-through fraction of the GRGDSPK-Sepharose column was applied to a concanavalin A-Sepharose 4B column (1×20 cm). Unbound proteins were washed with 50 ml column buffer, and bound αllbβ3 was then eluted with 100 mM mannose dissolved in column buffer. Fractions containing αllbβ3 were further purified on a Sephacryl S-300 High Resolution column
To perform the solid-phase binding assay, purified αllbβ3 was added to wells coated with either Cyr61 or Fisp12 (mCTGF) in the presence or absence of inhibitors and binding was allowed to proceed for 3 hours at 37° C. Unbound receptor was removed and the wells wee washed twice with HEPES-Tyrode's Buffer. The binding of purified αllbβ3 to Cyr61 or Fisp12/mCTGF immobilized onto microtiter wells was detected with ^125I-mAb15.

[6] = test system: Limb mesenchymal cells; experiment: Limb bud mesenchymal cell attachment; assay type: cell-based, mouse; details: within 1 hour of plating
Protocol: Cyr61, fibronectin (Gibco), or tenascin (Gibco) were diluted in 0.1% protease-free bovine serum albumin (BSA) in PBS with 0.5 mM PMSF, to a final concentrations of 10 or 50 μg/ml. A 10 μl drop/well was placed in a non-tissue culture treated 24-well plate (Corning), and incubated at room temperature for 2 hours. The wells were blocked with 1% BSA in PBS for 1 hour at room temperature, and rinsed with serum-free MEM (Modified Eagle's Medium). Limb mesenchymal cells, suspended at 5×10^5 cell/ml in serum-free MEM, were added at a volume of 400 μl/well, and incubated at 37° C., 5% CO2 for 1 or 3 hours. At each time point, the cell suspension was removed, the wells were rinsed with MEM and the remaining adherent cells were photographed.

[7] = test system: Limb mesenchymal cells; details: 50 μg/ml (200 nM), literature; cited from earlier work
[8] = EDTA 5 mM, RGDS 0.5 mM, LM609 ascites 1:200

T1 sequence (P06756 31-889 limits assumed): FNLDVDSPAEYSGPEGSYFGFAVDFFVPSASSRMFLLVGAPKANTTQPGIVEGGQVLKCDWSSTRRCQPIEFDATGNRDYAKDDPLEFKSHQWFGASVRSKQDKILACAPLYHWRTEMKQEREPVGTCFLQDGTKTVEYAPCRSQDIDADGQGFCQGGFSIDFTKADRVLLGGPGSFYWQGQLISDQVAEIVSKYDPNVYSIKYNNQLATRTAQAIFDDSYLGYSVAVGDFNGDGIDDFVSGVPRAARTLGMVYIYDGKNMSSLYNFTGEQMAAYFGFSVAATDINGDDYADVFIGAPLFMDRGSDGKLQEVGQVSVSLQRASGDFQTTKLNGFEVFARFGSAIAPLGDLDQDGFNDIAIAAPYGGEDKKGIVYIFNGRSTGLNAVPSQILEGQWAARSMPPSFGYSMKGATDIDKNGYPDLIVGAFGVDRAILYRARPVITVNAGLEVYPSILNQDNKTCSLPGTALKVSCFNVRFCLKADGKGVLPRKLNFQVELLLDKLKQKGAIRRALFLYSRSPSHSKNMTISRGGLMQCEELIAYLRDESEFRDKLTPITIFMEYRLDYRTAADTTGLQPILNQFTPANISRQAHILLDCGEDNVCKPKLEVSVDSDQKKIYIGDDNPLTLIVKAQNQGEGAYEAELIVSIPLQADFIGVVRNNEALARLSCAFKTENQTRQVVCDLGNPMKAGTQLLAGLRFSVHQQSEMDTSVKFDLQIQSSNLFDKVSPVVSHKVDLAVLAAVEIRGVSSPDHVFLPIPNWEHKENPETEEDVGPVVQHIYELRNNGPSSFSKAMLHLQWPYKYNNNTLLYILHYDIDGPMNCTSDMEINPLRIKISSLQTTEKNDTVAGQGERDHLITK
T1 sequence (P06756 891-1048 partner limits assumed): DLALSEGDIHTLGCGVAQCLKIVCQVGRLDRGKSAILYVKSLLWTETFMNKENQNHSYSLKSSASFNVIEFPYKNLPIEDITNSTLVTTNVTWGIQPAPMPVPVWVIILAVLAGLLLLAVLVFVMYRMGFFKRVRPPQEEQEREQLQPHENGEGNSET
T1 sequence (P05106 27-788): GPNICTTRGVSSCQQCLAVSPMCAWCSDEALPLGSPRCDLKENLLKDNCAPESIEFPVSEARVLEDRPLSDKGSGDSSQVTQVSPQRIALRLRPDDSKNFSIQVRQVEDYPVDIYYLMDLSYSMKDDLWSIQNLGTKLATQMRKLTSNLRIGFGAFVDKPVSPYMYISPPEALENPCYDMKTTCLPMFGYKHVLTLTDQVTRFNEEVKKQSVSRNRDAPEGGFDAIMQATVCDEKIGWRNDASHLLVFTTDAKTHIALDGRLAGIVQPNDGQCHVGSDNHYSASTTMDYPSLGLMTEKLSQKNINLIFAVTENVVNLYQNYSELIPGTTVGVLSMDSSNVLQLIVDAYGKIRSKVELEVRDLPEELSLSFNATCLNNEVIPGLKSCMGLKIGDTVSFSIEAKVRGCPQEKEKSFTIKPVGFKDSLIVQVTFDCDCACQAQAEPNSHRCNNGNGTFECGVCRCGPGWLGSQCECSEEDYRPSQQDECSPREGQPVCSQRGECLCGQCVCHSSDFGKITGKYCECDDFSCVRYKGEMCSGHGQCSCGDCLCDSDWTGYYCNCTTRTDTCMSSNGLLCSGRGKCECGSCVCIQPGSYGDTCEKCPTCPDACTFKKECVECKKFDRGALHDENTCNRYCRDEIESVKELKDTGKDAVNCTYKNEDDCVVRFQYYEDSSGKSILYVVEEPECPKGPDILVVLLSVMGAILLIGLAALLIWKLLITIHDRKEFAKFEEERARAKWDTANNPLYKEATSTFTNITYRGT

Compound | effect of agent on activated platelet adhesion to Cyr61 and Fisp12/mCTGF [3] | effect of agent on adhesion of ADP-activated platelets to fibrinogen [3] | effect of agent on activated αllbβ3 binding to Fisp12/mCTGF and Cyr61 [5] | also measured
O=C(O)CN(CCN(CC(=O)O)CC(=O)O)CC(=O)O [EDTA, Ethylenediamine tetraacetic acid] | completely abolished platelet adhesion to both proteins | completely inhibited |  | effect of agent on Fisp12-mediated cell attachment [1]: inhibited; 1064SK adhesion to Cyr61-coated wells with agent ([2]; Cyr61 2 μg/ml, agent at the level stated in the block, Mg2+ 5.0 mM after EDTA): about 0.12 A620; 1064SK adhesion to Type I collagen-coated wells with agent ([2]; Type I collagen 2 μg/ml): 0.10 A620; 1064SK adhesion to vitronectin-coated wells with agent ([2]; vitronectin 0.5 μg/ml): 0.05 A620
vitronectin: Human plasma vitronectin, serum spreading factor |  |  |  | binding to immobilized αVβ3 integrin ([4]; 1 μg/ml Cyr61 or 0.1 μg/ml vitronectin): bound to the immobilized integrin; inhibition by anti-α6 antibody of binding mediated by the coated protein ([2]; anti-α6 20 μg/ml): 9%
RGDS |  | completely inhibited | specifically blocked | effect of agent on Cyr61 interaction with αVβ3 [4, 8]: inhibited; effect of agent on vitronectin interaction with αVβ3 [4, 8]: inhibited
tenascin: ECM protein (Gibco) |  |  |  | attachment morphology of limb mesenchymal cells [6]: adhered as clusters of rounded cells; increase of chondrogenesis in micromass cultures [7]: 3 fold
H-HHLGGAKQAGDV-OH [H12] | inhibited platelet adhesion to Cyr61 and Fisp12/mCTGF | completely inhibited | effectively inhibited | 
echistatin | completely blocked platelet adhesion to both proteins | completely inhibited | effectively inhibited | 
